Laboratory results taken from patent US8754058B2, “Inhibitors of FAM3B gene, inhibitor compositions, inhibiting methods and applications of inhibitors in preparing pharmaceuticals” (Suzhou Ribo Life Science Company, Ltd., priority 2009, dated 2014).
Entries after “also recorded” stand apart in the source; their conditions may differ. d = 2'-deoxy (DNA); r = 2'-OH (RNA)

How the values were obtained:
[1] = system: FAM3B protein in HepG2 cells; experiment: Western blot of FAM3B protein in transfected HepG2 cells; format: cell-based, human; conditions: 48 hours after transfection, Western blot grayscale, FIG. 5
Method: The cells are digested with 0.25% trypsin 24 hours before the transfection, then the cells are counted and inoculated into the 24 well plate in a density of 1×10^5 cells/ml, and 1000 μl cells are added in each well. Lipofectamine™ 2000 liposome from Invitrogen Company is used for the transfection with the small interfering nucleotides obtained from example 1 (FAM3B-1 to FAM3B-32) respectively, and unrelated small interfering nucleotide (the sense strand: 5-[…]-3 (SEQ ID NO: 78); the antisense strand: 5-ACGUGACACGUUC GGAGAATT-3 (SEQ ID NO: 79)) is used as the negative control.
(4) Inhibition on FAM3B Protein Expression by Using Small Interfering Nucleotides
After the cells transfected according to step (2) in example 6 are cultured for 48 hours, the cells are disrupted by using the protein lysis buffer and the total proteins are extracted, and the protein sample is examined according to the standard procedure for Western blot. For the detection of FAM3B protein, the membrane is incubated with the rabbit derived anti-FAM3B antibody (R&D systems), the secondary antibody is the peroxidase labelled horse anti-rabbit antibody (Zhongshan Jinqiao); the antibody for detecting the internal reference β-actin: the primary antibody is mouse derived anti-β-actin antibody, and the secondary antibody is the peroxidase labelled goat anti-mouse antibody, and the results are subjected to grayscale comparison shown as FIG. 5.

HepG2 cells = experiment: inhibition of fat-emulsion-induced lipid accumulation in HepG2 cells, oil red O staining; format: cell-based, human; conditions: 20% fat emulsion induction 48 hours, 50 nM, 48 hours after transfection, FIG. 6
Method: (1) Induction of Lipid Accumulation in HepG2 Cells
The cells are inoculated in the 24 well culture plate in a density of 2×10^4 cells/1 mL, 20% fat emulsion for medical use is added in each well in a dosage of 2 ml/L, and the cells are cultured for 48 hours. The culture is stopped and oil red O staining is carried out to observe the lipids in the cells. The operations are as followed: the cells are rinsed with PBS for three times and 5 minutes each; then the cells are fixed with 50% isopropanol for 1 min and stained with oil red O for 10 min; the cells are rinsed with distilled water for three times and 1 min each; the cells are observed and photographed under a microscope. Normally, the cells might be not stained or only slightly stained, large amount of lipids accumulated in the cells after induction with fat emulsion for medical use, and red lipid droplets can be detected under the microscope after the staining with oil red O.
(2) Determination of the Inhibitory Effects on Lipid Accumulation in HepG2 Cells […]

FAM3B mRNA in intestine = experiment: FAM3B mRNA expression in intestine of hyperlipemia model mice; format: in vivo; conditions: tail vein, daily for 7 days, FIG. 7
Text: (§1) The hyperlipemia model of mice is induced by using high-fat feeds, the C57BL/6J mice are purchased from Vital River, male, three weeks old. The formula for the high fat feeds is as below: basic feeds 83.5%, […], 1% cholesterol, 10% pork fat, 0.2% propylthiouracil, 0.3% sodium deoxycholate, 5% sucrose, and it is produced by the experimental animal center of Academy of Military Medical Sciences. The hyperlipemia model of mice is obtained after induction for 3-4 weeks.
(§2) After the small interfering nucleotide of FAM3B gene FAM3B-46 is labelled with cholesterol or coated with liposome, it is injected into the hyperlipemia model of mice via their tail veins. The injection is carried out for continuous 7 days with one injection each day and the samples are collected after 7 days. The standard dosages for injection are 2.5 mg, 5 mg and 10 mg for every kilogram of body weight. Other dosages such as 0.1 mg-50 mg small interfering nucleotide for every kilogram of body weight are also under test.

[2] = system: FAM3B protein in hepatic tissues; experiment: FAM3B protein expression in hepatic tissues of hyperlipemia model mice; format: in vivo; conditions: tail vein, daily for 7 days
Text: as §1, §2

[3] = system: hyperlipemia model of mice; experiment: TG and cholesterol levels in hepatic tissues of hyperlipemia model mice; format: in vivo; conditions: tail vein, daily for 7 days, FIG. 8
Text: as §1
as §2, with “test. The products from Zhongsheng Beikong Biological Technological Co., Ltd. are used as the kit for detecting triglyceride (TG) and cholesterol, and they are determined on a SABA/18 automated biochemical analyzer. The detections are carried out with reference to the instruction for the kits of Biosino Bio-Technology and Science Incorporation. The animals are subjected to fast dieting 16 hours before blood sample collection.” for “test.”

[4] = system: hepatic adipose infiltration model mice; experiment: hepatic adipose infiltration model in mice (MCD diet), oil red O and HE staining of hepatic sections; format: in vivo; conditions: tail i.v. once every three days, 15 days, 2.5, 5 and 10 mg/kg, FIG. 2
Text: (1) Induction on hepatic adipose infiltration model in mice. 10 male C57BL/6J mice (purchased from the department of experimental animals, Medical Division of Peking University) with age of 8-10 weeks are divided into two groups (normal diet and MCD diet). MCD (high-fat, methionine-choline deficient) diet is a common program for the investigations on non-alcoholic fatty liver in this field. The hepatic adipose infiltration model in mice is obtained after treatments for 10-16 weeks. (2) Treatments on Hepatic Adipose Infiltration Using Small Interfering Nucleotides
1.2 mg (0.09 μmol) small interfering nucleotides from FAM3B-43 to FAM3B-46 with modification in the example 3 is dissolved in 1.5 ml RNAase free sterilized physiological saline to prepare a solution comprising 60 μmol/L small interfering nucleotides, and it is mixed in certain proportion with the carrier material. The injection is obtained after the mixed small interfering nucleotide is added into 5 ml RNAase free sterile physiological saline (the concentration of the small interfering nucleotide is 0.25 mg/ml). […]

[5] = system: hyperlipemia model of mice; experiment: TG and cholesterol levels in blood of hyperlipemia model mice; format: in vivo; conditions: tail vein, daily for 7 days, FIG. 9
Text: as §1, §2

[6] = system: FAM3B protein in intestine; experiment: FAM3B protein expression in intestine of hyperlipemia model mice; format: in vivo; conditions: tail vein, daily for 7 days
Text: as §1, §2

[7] = standard dosages 2.5, 5, 10 mg/kg
[8] = standard dosages and 10 mg/kilogram body weight

Substance: FAM3B-11: siRNA, human FAM3B; sense 5′-CUCUGGACCGAUGACAAAGdTdT-3′; antisense 5′-CUUUGUCAUCGGUCCAGAGdTdT-3′ (sense CUCUGGACCGAUGACAAAGTT; antisense CUUUGUCAUCGGUCCAGAGTT; sugars from the 5' end r19 d2, backbone not given here)
- inhibition of FAM3B protein expression in HepG2 cells [1]: significantly inhibit

Substance: FAM3B-15: siRNA, human FAM3B; sense 5′-GCACUUGGAAGUAAAGAAAdTdT-3′; antisense 5′-UUUCUUUACUUCCAAGUGCdTdT-3′ (sense GCACUUGGAAGUAAAGAAATT; antisense UUUCUUUACUUCCAAGUGCTT; sugars from the 5' end r19 d2, backbone not given here)
- inhibition of FAM3B protein expression in HepG2 cells [1]: significantly inhibit

Substance: FAM3B-17: siRNA, human FAM3B; sense 5′-GGUCUAGCUGGGUAUUUAUdTdT-3′; antisense 5′-AUAAAUACCCAGCUAGACCdTdT-3′ (sense GGUCUAGCUGGGUAUUUAUTT; antisense AUAAAUACCCAGCUAGACCTT; sugars from the 5' end r19 d2, backbone not given here)
- inhibition of FAM3B protein expression in HepG2 cells [1]: significantly inhibit

Substance: FAM3B-20: siRNA, human FAM3B; sense 5′-GCUAAGAACAACAGAUAUUdTdT-3′; antisense 5′-AAUAUCUGUUGUUCUUAGCdTdT-3′ (sense GCUAAGAACAACAGAUAUUTT; antisense AAUAUCUGUUGUUCUUAGCTT; sugars from the 5' end r19 d2, backbone not given here)
- inhibition of fatty deposition in HepG2 cells (HepG2 cells): significantly inhibit fatty deposition
- inhibition of FAM3B protein expression in HepG2 cells [1]: significantly inhibit

Substance: FAM3B-24: siRNA, human FAM3B; sense 5′-GAGUAAAUGUGUUCUGUAUdTdT-3′; antisense 5′-AUACAGAACACAUUUACUCdTdT-3′ (sense GAGUAAAUGUGUUCUGUAUTT; antisense AUACAGAACACAUUUACUCTT; sugars from the 5' end r19 d2, backbone not given here)
- inhibition of FAM3B protein expression in HepG2 cells [1]: significantly inhibit

Substance: FAM3B-46: chemically modified mouse FAM3B siRNA (2′-O-methyl sense with cholesterol, 2′-fluoro antisense); 5-UCAGAAAUCGAGAGAGAAAdTdT; 5-UUUCUCUCUCGAUUUCUGAdTdT (sense UCAGAAAUCGAGAGAGAAATT; antisense UUUCUCUCUCGAUUUCUGATT; Sense 2'-OMe, antisense 2'-F at italic positions, sense cholesterol at terminus, further chemistry not given here)
- reduction of FAM3B mRNA expression in intestine (FAM3B mRNA in intestine): significantly inhibit
- reduction of FAM3B mRNA expression in intestine (FAM3B mRNA in intestine; [7]): 45%
- reduction of FAM3B protein expression in hepatic tissues [2, 7]: 40%
- reduction of TG level in hepatic tissues ([3]; 5 mg and 10 mg/kilogram body weight): 20-40%
- reduction of cholesterol level in hepatic tissues ([3]; 10 mg/kilogram body weight): 15-30%
- reduction of TG level in hepatic tissues [3]: significantly reduce
- reduction of cholesterol level in hepatic tissues [3]: significantly reduce
- degree of hepatic adipose infiltration (oil red O and HE staining) [4]: effectively reduce the degree of hepatic adipose infiltration; also recorded: significantly reduced
- reduction of TG level in blood [5]: significantly reduce
- reduction of cholesterol level in blood [5]: significantly reduce
- reduction of TG level in blood [5, 8]: 25-50%
- reduction of cholesterol level (cholesterol level in blood examined; printed 'in hepatic tissues') [5, 8]: 25-50%
- reduction of FAM3B protein expression in intestine [6, 7]: 30%

Substance: unrelated small interfering nucleotide: negative control siRNA; sense 5-UUCUCCGAACGUGUCACGUTT-3 (SEQ ID NO: 78); antisense 5-ACGUGACACGUUCGGAGAATT-3 (SEQ ID NO: 79) (chemistry not given here) [reference compound]
- reduction of FAM3B mRNA expression in intestine (FAM3B mRNA in intestine): could not significantly reduce
- reduction of FAM3B protein expression in hepatic tissues [2]: could not significantly reduce
- reduction of TG level in hepatic tissues [3]: could not significantly reduce
- reduction of cholesterol level in hepatic tissues [3]: could not significantly reduce
- reduction of TG level in blood [5]: could not significantly reduce
- reduction of cholesterol level in blood [5]: could not significantly reduce
- reduction of FAM3B protein expression in intestine [6]: could not significantly reduce
